Entries after “also recorded” stand apart in the source; their conditions may differ. Read-outs that look alike come from different tables or passages of the source.
Columns and labels:
C. elegans = C. elegans lifespan assays (liquid and plate); assay type: in vivo, Caenorhabditis elegans; details: for ILS at 60 µM / ILS at 66 µM: Caenorhabditis elegans; for O = Life span- extending scores in worms: score scale 0 to 2, 4 to 6 independent trials; for M = Lifespan-extending scores in worms: summary score
NRF2 = assay: qPCR analysis of NRF2-regulated genes; assay type: cell-based, human; details: for fold induction at 10 µM: Homo sapiens
Method in brief: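 WI-38 cells treated with compound at 10 μM for 24 hrs, then processed by Cells-to-Ct for RNA isolation, RT and qPCR of NRF2-regulated genes (HMOX1, NQO1, GCLC, GSTM1). Expression normalized to B2M, PPIA and GAPDH; siRNA knockdown of FOXO3 or NRF2 (10 nM) preceded treatment in some runs.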

human PARP1 = biological target: T1, human PARP1 (Homo sapiens, UniProt P09874); assay: PARP inhibitor assay (HT Fluorescent Homogeneous PARP Inhibition Assay Kit); assay type: biochemical; details: score
T1 construct: purchased Trevigen
Method in brief: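 Human PARP1 with NAD and activated DNA, compounds at 10 μM final, 30 min at room temperature in dark. Resazurin/diaphorase cycling mix then added for 1 hr in dark before stop buffer; fluorescent homogeneous kit read-out.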

FOXO3 = assay: qPCR analysis of FOXO3-regulated genes; assay type: cell-based, human; details: for fold induction at 10 µM: Homo sapiens; for K = Sestrin induction: score
Method in brief: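 WI-38 cells treated with compound at 10 μM for 24 h, followed by Cells-to-Ct RT-qPCR of FOXO3 target genes normalised to B2M, PPIA and GAPDH. FOXO3 or NRF2 dependence tested by prior 10 nM siRNA knockdown (36 h transfection, compound added ~24 h after replating).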

WI-38 cells = details: for Percentage of propidium iodide-positive dead cells (no H2O2 stress treatment), at 10 uM: negative control 0.41% ± 0.23%
Procedure: WI-38 cells were seeded on 384-well plates for 24 hrs and then incubated with small molecules for 24 hrs. […] Images were collected on an INCell Analyzer 2000 (GE) and analyzed with the Developer software.

[1] = in liquid, wild type, with FuDR, 1.0 × 10^9 bacteria/ml, read-out: relative change of mean lifespan vs control, Trial 1
[2] = in liquid, wild type, with FuDR, 2.5 × 10^9 bacteria/ml, read-out: relative change of mean lifespan vs control, Trial 2
[3] = on plate, CF512 temperature-sensitive sterile animals, without FuDR, 2.0 × 10^10 bacteria/ml, read-out: relative change of mean lifespan vs control, Trial 3
[4] = Assay 2(z), 1.0 × 10^9 bacteria/ml, wild type + FuDR (2012 July), read-out: Lifespan assay in liquid
[5] = Assay 3(aa), 2.5 × 10^9 bacteria/ml, wild type + FuDR, read-out: Lifespan assay in liquid
[6] = Assay 4(ab), 2.0 × 10^10 bacteria/ml, CF512 worms, no FuDR, read-out: Lifespan assay on plates
[7] = 24 h, Assay 12(o), at 10 uM, qPCR, read-out: Induction of NRF2-regulated genes: GCLC normalized fold-change
[8] = 24 h, Assay 12(o), at 10 uM, qPCR, read-out: Induction of NRF2-regulated genes: HMOX1 normalized fold-change
[9] = WI-38 cells, 10 μM, 24 hrs, n=4, qPCR normalized by B2M, read-out: GCLC Normalized fold change
[10] = WI-38 cells, 10 μM, 24 hrs, n=4, qPCR normalized by B2M, read-out: GSTM1 Normalized fold change
[11] = WI-38 cells, 10 μM, 24 hrs, n=4, qPCR normalized by B2M, read-out: HMOX1 Normalized fold change
[12] = WI-38 cells, 10 μM, 24 hrs, n=4, qPCR normalized by B2M, read-out: NQO1 Normalized fold change
[13] = 24 h, Assay 10(m), at 10 uM, qPCR, read-out: Induction of FOXO3-regulated genes: GADD45A normalized fold-change
[14] = 24 h, Assay 10(m), at 10 uM, qPCR, read-out: Induction of FOXO3-regulated genes: SESN1 normalized fold-change
[15] = 10 μM, 24 hrs, WI-38 cells, qPCR, normalized to B2M, n = 4, read-out: CAT expression, normalized fold change (FOXO3-regulated gene)
[16] = 10 μM, 24 hrs, WI-38 cells, qPCR, normalized to B2M, n = 4, read-out: SESN1 expression, normalized fold change (FOXO3-regulated gene)
[17] = WI-38 cells, 10 μM, 24 hrs, n=4, qPCR normalized by B2M, read-out: DDB1 Normalized fold change
[18] = WI-38 cells, 10 μM, 24 hrs, n=4, qPCR normalized by B2M, read-out: GADD45A Normalized fold change
[19] = WI-38 cells, 10 μM, 24 hrs, n=4, qPCR normalized by B2M, read-out: SESN1 Normalized fold change
[20] = fold change, qPCR, WI-38 cells, 10 μM, 24 hrs, read-out: Summary of effects on FOXO3-regulated genes: CAT
[21] = fold change, qPCR, WI-38 cells, 10 μM, 24 hrs, read-out: Summary of effects on FOXO3-regulated genes: SESN1
[22] = qPCR, WI-38 cells, 10 μM, n=4, 24 hrs, normalized by B2M, read-out: CAT Normalized fold change
[23] = qPCR, WI-38 cells, 10 μM, n=4, 24 hrs, normalized by B2M, read-out: SOD2 Normalized fold change
[24] = qPCR, WI-38 cells, 10 μM, n=4, 24 hrs, normalized by B2M, read-out: TXNIP Normalized fold change

T1 sequence (P09874 whole entry): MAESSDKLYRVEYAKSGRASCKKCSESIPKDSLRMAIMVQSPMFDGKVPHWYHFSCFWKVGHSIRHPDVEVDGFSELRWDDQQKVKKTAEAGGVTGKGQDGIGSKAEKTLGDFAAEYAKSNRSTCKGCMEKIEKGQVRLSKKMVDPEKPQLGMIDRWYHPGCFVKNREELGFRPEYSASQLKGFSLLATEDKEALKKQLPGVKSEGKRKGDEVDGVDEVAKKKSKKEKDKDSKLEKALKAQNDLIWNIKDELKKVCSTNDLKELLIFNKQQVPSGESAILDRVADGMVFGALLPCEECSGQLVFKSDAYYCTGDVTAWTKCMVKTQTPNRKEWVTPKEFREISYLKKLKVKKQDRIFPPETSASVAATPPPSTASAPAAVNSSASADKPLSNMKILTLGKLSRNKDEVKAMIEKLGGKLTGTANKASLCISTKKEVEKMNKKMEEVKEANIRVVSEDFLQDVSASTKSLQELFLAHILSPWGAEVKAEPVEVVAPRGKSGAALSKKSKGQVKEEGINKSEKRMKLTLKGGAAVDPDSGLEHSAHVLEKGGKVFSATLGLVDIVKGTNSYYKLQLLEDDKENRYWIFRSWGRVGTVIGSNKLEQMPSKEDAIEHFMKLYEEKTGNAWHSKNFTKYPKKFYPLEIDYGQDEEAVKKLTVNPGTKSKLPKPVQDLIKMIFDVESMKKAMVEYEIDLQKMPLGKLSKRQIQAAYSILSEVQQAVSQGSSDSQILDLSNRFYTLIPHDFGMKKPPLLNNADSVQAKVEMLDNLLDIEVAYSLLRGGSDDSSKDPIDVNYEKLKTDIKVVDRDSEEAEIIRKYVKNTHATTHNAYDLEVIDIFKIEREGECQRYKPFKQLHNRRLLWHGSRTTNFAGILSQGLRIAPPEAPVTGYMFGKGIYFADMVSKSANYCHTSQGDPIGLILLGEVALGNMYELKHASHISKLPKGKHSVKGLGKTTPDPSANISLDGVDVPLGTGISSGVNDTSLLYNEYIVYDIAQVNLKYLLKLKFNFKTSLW

SMILES: O=C(Nc1cccc(C(F)(F)F)c1)c1ccc([N+](=O)[O-])o1 [Gr-1E]
- ILS at 60 µM (C. elegans; [1]): 17.4%
- ILS at 60 µM (C. elegans; [2]): 6.3%
- ILS at 60 µM (C. elegans; [3]): 13.8%
- ILS at 66 µM (C. elegans; [4]): 17.4%
- ILS at 66 µM (C. elegans; [5]): 6.3%
- ILS at 66 µM (C. elegans; [6]): 13.8%
- Extension of C. elegans' lifespan (qualitative) (C. elegans; in at least 3 to 4 trials, group range ~10% to ~50%): could extend animal's lifespan
- O = Life span- extending scores in worms (C. elegans): 2 (2 for observed in more than 2 trials)
- M = Lifespan-extending scores in worms (C. elegans): 2 (2 for observed in more than 2 trials)
- F = Potential NRF2 Activation (NRF2; 2-point score): 0
- fold induction at 10 µM (NRF2; [7]): 1.36
- fold induction at 10 µM (NRF2; [8]): 0.79
- fold induction at 10 µM (NRF2; rounded fold change, WI-38 cells, 10 μM, 24 hrs (RP29 for Gr-4D), read-out: Summary of effects on NRF2-regulated genes: GSTM1): 2.11
- fold induction at 10 µM (NRF2; 10 μM, 24 hrs, WI-38 cells, qPCR, normalized to B2M, n = 4, read-out: GSTM1 expression, normalized fold change (NRF2-regulated gene)): 2.11
- fold induction at 10 µM (NRF2; [9]): 1.55
- fold induction at 10 µM (NRF2; [10]): 2.11
- fold induction at 10 µM (NRF2; [11]): 1.06
- fold induction at 10 µM (NRF2; [12]): 1.11
- F = Potential NRF2 Activation (NRF2; summary score): 0
- L = PARP inhibition (human PARP1): 0
- Induction of at least two of five FOXO3-regulated genes (SOD2, GADD45A, CAT, DDB1, TXNIP) (FOXO3; 10 μM, 24 hrs, WI-38): significant induction; also recorded: significant, induction
- E = Potential FOXO3 Activation (FOXO3; 2-point score): 0
- fold induction at 10 µM (FOXO3; 24 h, Assay 10(m), at 10 uM, qPCR, read-out: Induction of FOXO3-regulated genes: CAT normalized fold-change): 1.38
- fold induction at 10 µM (FOXO3; [13]): 0.62
- fold induction at 10 µM (FOXO3; [14]): 1.34
- fold induction at 10 µM (FOXO3; 24 h, Assay 10(m), at 10 uM, qPCR, read-out: Induction of FOXO3-regulated genes: TXNIP normalized fold-change): 1.33
- fold induction at 10 µM (FOXO3; [15]): 1.45
- fold induction at 10 µM (FOXO3; [16]): 1.4
- fold induction at 10 µM (FOXO3; 10 μM, 24 hrs, WI-38 cells, qPCR, normalized to B2M, n = 4, read-out: TXNIP expression, normalized fold change (FOXO3-regulated gene)): 2.02
- fold induction at 10 µM (FOXO3; [17]): 1.39
- fold induction at 10 µM (FOXO3; [18]): 0.752
- fold induction at 10 µM (FOXO3; [19]): 1.4
- fold induction at 10 µM (FOXO3; [20]): 1.45
- fold induction at 10 µM (FOXO3; [21]): 1.4
- fold induction at 10 µM (FOXO3; fold change, qPCR, WI-38 cells, 10 μM, 24 hrs, read-out: Summary of effects on FOXO3-regulated genes: TXNIP): 2.02
- fold induction at 10 µM (FOXO3; [22]): 1.45
- fold induction at 10 µM (FOXO3; [23]): 1.46
- fold induction at 10 µM (FOXO3; [24]): 2.02
- K = Sestrin induction (FOXO3): 0
- E = Potential FOXO3 Activation (FOXO3; summary score): 0
- Percentage of propidium iodide-positive dead cells (no H2O2 stress treatment), at 10 uM (WI-38 cells): 0.71% ± 0.28%,

SMILES: Cc1ccc(NC(=O)c2ccc([N+](=O)[O-])o2)cc1C [Gr-1F]
- ILS at 60 µM (C. elegans; [1]): 22.3%
- ILS at 60 µM (C. elegans; [2]): 0.6%
- ILS at 60 µM (C. elegans; [3]): 11.3%
- ILS at 66 µM (C. elegans; [4]): 22.3%
- ILS at 66 µM (C. elegans; [5]): 0.6%
- ILS at 66 µM (C. elegans; [6]): 11.3%
- O = Life span- extending scores in worms (C. elegans): 1 (1 for lifespan extension observed in 2 trials)
- M = Lifespan-extending scores in worms (C. elegans): 1 (1 for lifespan extension observed in 2 trials)
- F = Potential NRF2 Activation (NRF2; 2-point score): 0
- fold induction at 10 µM (NRF2; [7]): 1.35
- fold induction at 10 µM (NRF2; 24 h, Assay 12(o), at 10 uM, qPCR, read-out: Induction of NRF2-regulated genes: GSTM1 normalized fold-change): 1.28
- fold induction at 10 µM (NRF2; [8]): 0.82
- fold induction at 10 µM (NRF2; rounded fold change, WI-38 cells, 10 μM, 24 hrs, read-out: Summary of effects on NRF2-regulated genes: GCLC): 1.62
- fold induction at 10 µM (NRF2; 10 μM, 24 hrs, WI-38 cells, qPCR, normalized to B2M, n = 4, read-out: GCLC expression, normalized fold change (NRF2-regulated gene)): 1.62
- fold induction at 10 µM (NRF2; [9]): 1.62
- fold induction at 10 µM (NRF2; [10]): 1.72
- fold induction at 10 µM (NRF2; [11]): 1.09
- fold induction at 10 µM (NRF2; [12]): 1.11
- F = Potential NRF2 Activation (NRF2; summary score): 0
- L = PARP inhibition (human PARP1): 0
- E = Potential FOXO3 Activation (FOXO3; 2-point score): 0
- fold induction at 10 µM (FOXO3; 24 h, Assay 10(m), at 10 uM, qPCR, read-out: Induction of FOXO3-regulated genes: DDB1 normalized fold-change): 1.12
- fold induction at 10 µM (FOXO3; [13]): 0.8
- fold induction at 10 µM (FOXO3; [14]): 1.64
- fold induction at 10 µM (FOXO3; WI-38, 24 h, read-out: SESN1 expression): > 1.5
- fold induction at 10 µM (FOXO3; [15]): 1.35
- fold induction at 10 µM (FOXO3; [16]): 2
- fold induction at 10 µM (FOXO3; [17]): 1.37
- fold induction at 10 µM (FOXO3; [18]): 1.02
- fold induction at 10 µM (FOXO3; [19]): 2
- fold induction at 10 µM (FOXO3; [20]): 1.35
- fold induction at 10 µM (FOXO3; [21]): 2
- fold induction at 10 µM (FOXO3; [22]): 1.35
- fold induction at 10 µM (FOXO3; [23]): 1.68
- fold induction at 10 µM (FOXO3; [24]): 1.54
- K = Sestrin induction (FOXO3): 1
- E = Potential FOXO3 Activation (FOXO3; summary score): 0
- PI cell-death imaging without H2O2 (indicating potential toxicity) (WI-38 cells; Assay 8(k), without H2O2, at 10 uM): YES
- Percentage of propidium iodide-positive (dead) cells under normal conditions (qualitative) (WI-38 cells; WI-38, no H2O2): increased the percentage
- PI-positive dead cells under normal conditions (WI-38 cells; WI-38, no H2O2, control 0.4±0.2%): 3.3±0.8%
- Percentage of propidium iodide-positive dead cells (no H2O2 stress treatment), at 10 uM (WI-38 cells): 3.27% ± 0.82%,

Reference: patent US11413278B2, “Compounds and methods for promoting stress resistance” (priority 2015, dated 2022)
